Patent US20030203975A1, “Anti-cancer agents” (priority 1998, published 2003)

Assays:
[1] = target: T1, Topoisomerase IIβ (Homo sapiens, UniProt Q02880); assay: Topo II relaxation assay; assay type: biochemical; parameters: key: ‘—’ = Not active; conditions: unit not given; compound at 1, 10, 25 and 50 μM in protocol
Method: (§1) Topo II Relaxation Assay Protocol
(§2) 10×Topo II Relaxation Buffer
(§3) 500 mM Tris-HCl (pH 7.5); 100 mM mgCI2; 50 mM EDTA; 300 mg/mI BSA; 10 mM DTT; −20° C.

[2] = target: Topoisomerase IIα (Homo sapiens, UniProt P11388); assay: Topo II relaxation assay; assay type: biochemical; parameters: key: ‘—’ = Not active; conditions: unit not given; compound at 1, 10, 25 and 50 μM in protocol
Method: as §1, §2, §3

[3] = target: T1, Topoisomerase IIβ; assay: Topo II decatenation assay; assay type: biochemical; conditions: unit not given; kDNA substrate; compound at 1, 10, 25 and 50 μM in protocol
Method: Topisomerase Decatenation Assay.
This method uses catenated DNA substrate prepared from the kinetoplast of the insect trypanosome Crithidia fasciculata. Upon incubation with topo II, which engages DNA in a double stranded breakage-reunion cycle, DNA minicircles are released. Addition of topo-inhibiting drugs may prevent decatenation.
Topo II Decatenation Assay Protocol
This assay is the same as the Topo II Relaxation assay except that the pBR 322 Plasmid DNA is replaced with kDNA.
Results are included in Table 3 below

[4] = target: T1, Topoisomerase IIβ; assay: Topo II cleavage assay; assay type: biochemical; conditions: unit not given; compound at 1, 10, 25 and 50 μM in protocol
Method: Topo II 5 μl (1-1 μg); […] Results are included in Table 3 below.

[5] = system: DNA: Calf thymus sodium salt; assay: DNA binding assay, ethidium bromide displacement; parameters: key: NB = Not binding; conditions: concentration required to displace 50% of the ethidium bromide; 20 μM DNA, 2 μM dye
Method: The propensity of selected compounds to bind to DNA in the absence of topos was measured in order to identify compounds that would bind weakly, or not at all. […] A […] was used determine binding constants of the compound to DNA by displacement of either ethidium bromide (an intercalator) or Hoechst dye 33258 (a groove binder) which form a DNA-bound fluorescent complex measured by fluorescence spectroscopy.
DNA Binding Assay Protocol
In order to detect the strength and mode of anthraquinone compound binding to DNA the displacement of known DNA binders was detected by measuring the fluorescence of a DNA/fluorescent compound complex. The addition of known concentrations of ethidium bromide, an interchelator, and Hoescht Dye, a groove binder, cause a fluorescent DNA/binder complex that can be detected and the fluorescence quantified. The addition of anthraquinone compounds displaces the interchelators or groove binders, depending on the compound mode of DNA binding, and therefore reduces the fluorescence accordingly. The preferred binding action of compounds can be quantified by determining the reduction in fluorescence resulting from a given concentration of compound. The quantification of a compounds ability to bind to DNA is expressed, as the concentration required to displace 50% of the ethidium bromide or Hoescht Dye, thus reducing the fluorescence by 50%. Therefore, the values produced are QE50 for ethidium, bromide, or QH50 for Hoescht Dye.
Compound: 300, 60, 10 and 10/6gM (1.66 μM) solution concentrations were prepared for use in the assay to produce a range of compound. Concentrations. 100, 200 and 300 μl of each dilution were used in the assay reaction. This provides a range of concentrations: −30, 20, 10, 6, 4, 2, 1, 0.67, 0.33, 0.17, 0.11, 0.06, 0.00 μM in the assay environment. Intermediate concentrations can be utilised to enhance the accuracy of the displacement concentration determination.
Buffer: 100 mM Tris, NaCI 500 mM. DNA: Calf thymus sodium salt. Stock solution of 200 μM was prepared in 10× assay buffer. Dilution of DNA therefore provided the correct concentration of assay buffer in the assay cell.300 μg DNA was used in 3 ml reaction mixture therefore 20 μM DNA concentration. Hoescht Dye 2 μM final concentration, therefore 100 μl of a 60 μM stock solution was added to a 3 ml assay. Ethidium Bromide 2 μM final concentration therefore 100 μl of a 60 μM stock solution was added to a 3 ml assay. Distilled H2O Water was added to produce 3 ml reaction volume. Order of addition: 1. DNA, 2. Water, 3. Drug, 4. Dye
The assay was completed with both Hoescht Dye and Ethidium. Bromide for each compound. The ethidium bromide is a DNA inter-chelator, Hoescht Dye is a minor groove binder. 100, 200 and […] of the lowest compound dilution was assayed. This procedure was repeated with all further dilution's. This provided a curve of fluorescence intensity decrease with increasing compound concentration. QE50 and QH50 values were determined by extrapolating the concentration of compound at the point where the fluorescence intensity was reduced by 50%. Controls involving compound only and ethidium. bromide or Hoechst Dye without compound were carried out for each experiment. Two readings for each concentration of compound were performed per experiment, each experiment was repeated at least three times. Fluorometer: Perkin Elmer Luminescence Spectrometer LS 50B.

[6] = system: MAC 15A adenocarcinoma of the colon; assay: In vitro chemosensitivity against MAC 15A adenocarcinoma (MTT assay); assay type: cell-based; conditions: Mus musculus, MAC15A, 96 hours continuous exposure

T1 sequence (Q02880 whole entry): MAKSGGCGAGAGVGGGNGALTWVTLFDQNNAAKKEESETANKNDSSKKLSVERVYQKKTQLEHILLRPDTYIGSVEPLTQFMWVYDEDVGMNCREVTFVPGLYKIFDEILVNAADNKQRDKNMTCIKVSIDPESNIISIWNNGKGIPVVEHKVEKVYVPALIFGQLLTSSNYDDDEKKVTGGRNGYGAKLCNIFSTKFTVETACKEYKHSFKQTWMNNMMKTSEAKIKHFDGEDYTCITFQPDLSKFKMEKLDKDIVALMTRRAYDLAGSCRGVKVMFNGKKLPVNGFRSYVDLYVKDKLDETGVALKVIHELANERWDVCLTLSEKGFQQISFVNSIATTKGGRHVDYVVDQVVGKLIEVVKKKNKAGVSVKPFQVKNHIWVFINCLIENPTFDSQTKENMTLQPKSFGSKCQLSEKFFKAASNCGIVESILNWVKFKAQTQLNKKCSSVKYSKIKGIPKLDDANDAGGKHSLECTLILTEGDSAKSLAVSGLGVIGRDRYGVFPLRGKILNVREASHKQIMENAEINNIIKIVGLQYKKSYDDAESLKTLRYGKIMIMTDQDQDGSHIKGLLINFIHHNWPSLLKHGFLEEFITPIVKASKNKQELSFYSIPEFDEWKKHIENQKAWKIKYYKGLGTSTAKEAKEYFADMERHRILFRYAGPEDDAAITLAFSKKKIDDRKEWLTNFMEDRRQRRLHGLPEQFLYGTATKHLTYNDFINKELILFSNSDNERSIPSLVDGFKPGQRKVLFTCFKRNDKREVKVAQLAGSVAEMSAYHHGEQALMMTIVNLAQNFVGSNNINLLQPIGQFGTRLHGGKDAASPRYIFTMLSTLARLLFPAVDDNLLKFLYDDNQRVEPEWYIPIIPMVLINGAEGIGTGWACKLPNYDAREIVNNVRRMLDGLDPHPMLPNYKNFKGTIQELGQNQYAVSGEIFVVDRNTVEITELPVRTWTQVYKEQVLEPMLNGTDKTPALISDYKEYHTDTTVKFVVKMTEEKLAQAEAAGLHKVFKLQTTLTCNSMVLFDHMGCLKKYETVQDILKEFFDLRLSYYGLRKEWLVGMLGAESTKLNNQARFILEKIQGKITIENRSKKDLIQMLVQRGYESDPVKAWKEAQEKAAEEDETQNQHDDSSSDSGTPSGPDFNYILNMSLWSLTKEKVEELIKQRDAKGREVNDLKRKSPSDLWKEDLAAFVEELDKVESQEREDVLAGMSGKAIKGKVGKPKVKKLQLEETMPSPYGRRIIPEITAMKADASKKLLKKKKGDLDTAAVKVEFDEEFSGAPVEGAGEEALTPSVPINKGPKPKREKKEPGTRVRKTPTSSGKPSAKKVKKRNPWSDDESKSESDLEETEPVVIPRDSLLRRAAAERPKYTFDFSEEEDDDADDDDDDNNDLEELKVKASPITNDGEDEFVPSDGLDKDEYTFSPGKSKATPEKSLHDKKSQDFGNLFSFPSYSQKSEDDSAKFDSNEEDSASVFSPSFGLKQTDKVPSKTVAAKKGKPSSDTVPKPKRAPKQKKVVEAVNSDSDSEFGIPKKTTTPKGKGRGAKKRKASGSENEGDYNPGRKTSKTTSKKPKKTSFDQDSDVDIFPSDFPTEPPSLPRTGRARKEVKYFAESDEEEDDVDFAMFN
Sequence of Topoisomerase IIα (P11388 whole entry): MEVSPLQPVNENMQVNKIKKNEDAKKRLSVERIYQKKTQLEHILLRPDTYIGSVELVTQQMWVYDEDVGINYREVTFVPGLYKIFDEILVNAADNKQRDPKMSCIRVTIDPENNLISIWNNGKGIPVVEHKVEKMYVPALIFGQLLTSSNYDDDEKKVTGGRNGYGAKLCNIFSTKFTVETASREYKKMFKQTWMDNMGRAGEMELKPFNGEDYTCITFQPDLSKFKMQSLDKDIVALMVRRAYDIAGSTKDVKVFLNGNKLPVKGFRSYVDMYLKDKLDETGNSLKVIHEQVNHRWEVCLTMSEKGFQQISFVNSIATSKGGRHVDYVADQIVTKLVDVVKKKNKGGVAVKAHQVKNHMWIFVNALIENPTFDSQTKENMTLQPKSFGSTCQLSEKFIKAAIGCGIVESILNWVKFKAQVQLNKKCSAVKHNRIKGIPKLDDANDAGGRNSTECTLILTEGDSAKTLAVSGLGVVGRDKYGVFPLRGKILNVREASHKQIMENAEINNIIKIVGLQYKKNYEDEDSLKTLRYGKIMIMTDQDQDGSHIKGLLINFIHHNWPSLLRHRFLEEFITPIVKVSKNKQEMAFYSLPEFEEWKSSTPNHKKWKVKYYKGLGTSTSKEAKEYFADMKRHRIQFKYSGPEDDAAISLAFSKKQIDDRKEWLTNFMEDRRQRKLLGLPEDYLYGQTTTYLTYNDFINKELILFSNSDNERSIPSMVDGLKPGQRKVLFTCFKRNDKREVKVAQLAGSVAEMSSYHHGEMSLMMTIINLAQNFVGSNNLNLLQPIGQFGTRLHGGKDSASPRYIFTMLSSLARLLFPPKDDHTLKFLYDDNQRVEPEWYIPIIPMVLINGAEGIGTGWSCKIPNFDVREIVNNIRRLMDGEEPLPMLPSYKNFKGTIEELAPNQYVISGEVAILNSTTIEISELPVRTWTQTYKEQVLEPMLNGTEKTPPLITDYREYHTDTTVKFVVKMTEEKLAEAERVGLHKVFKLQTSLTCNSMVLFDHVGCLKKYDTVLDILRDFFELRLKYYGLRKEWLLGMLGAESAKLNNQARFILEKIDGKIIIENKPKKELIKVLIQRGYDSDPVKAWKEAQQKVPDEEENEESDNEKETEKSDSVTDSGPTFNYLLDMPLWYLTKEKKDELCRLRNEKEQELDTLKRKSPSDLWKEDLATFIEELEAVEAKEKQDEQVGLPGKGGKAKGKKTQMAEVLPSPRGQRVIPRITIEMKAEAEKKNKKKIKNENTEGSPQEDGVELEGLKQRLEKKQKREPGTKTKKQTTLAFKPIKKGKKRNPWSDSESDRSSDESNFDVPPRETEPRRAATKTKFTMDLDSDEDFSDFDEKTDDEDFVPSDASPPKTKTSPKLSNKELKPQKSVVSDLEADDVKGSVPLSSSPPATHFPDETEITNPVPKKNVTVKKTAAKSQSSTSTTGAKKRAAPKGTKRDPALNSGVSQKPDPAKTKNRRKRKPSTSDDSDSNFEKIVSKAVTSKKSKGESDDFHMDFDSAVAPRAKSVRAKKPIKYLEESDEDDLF

C[C@H](N)C(=O)OCCCCNc1cccc2c1C(=O)c1ccccc1C2=O.O=C(O)C(F)(F)F [Example 43, 1-[4-(L-alanyloxy)butylamino]anthracene-9,10-dione trifluoroacetate]
TopIIβ Relax. [1]: 15 | TopIIα Relax. [2]: — | TopIIβ Decat. [3]: 25 | TopIIβ Cleave. [4]: 25 | QE50 Intercalating [5]: NB | IC50 [6]: 2600 nM

C[C@@H](N)C(=O)OCCCCNc1cccc2c1C(=O)c1ccccc1C2=O.O=C(O)C(F)(F)F [Example 45, 1-[4-(D-alanyloxy)butylamino]anthracene-9,10-dione trifluoroacetate]
TopIIβ Relax. [1]: 25 | TopIIα Relax. [2]: — | TopIIβ Decat. [3]: 20 | TopIIβ Cleave. [4]: 20 | QE50 Intercalating [5]: NB | IC50 [6]: 2900 nM
